Patent publication US6761919B2, “Ambient stable beverage” (priority 2000, dated 2004)

Experiments:
Format in all cases: cell-based
[1] = test system: yeast Saccharomyces cerevisiae X2180-1B; test: Growth of yeast in matrix of tubes of Ready to Drink tea (0.14% tea) with preservatives and essential oil component, OD 600 nm at 14 days; conditions: RTD tea pH 3.4, cinnamic acid 1-175 ppm, 14 days 25° C.; for tubes supporting yeast growth compared with control without essential oil (FIG. 13): benzoic acid 1-250 ppm; for tubes supporting yeast growth compared with control without essential oil (FIG. 1): sorbic acid 1-250 ppm; for tubes supporting yeast growth compared with control without essential oil (FIG. 19): sorbic acid+benzoic acid 1:1 1-250 ppm
Protocol: (§1) The matrix of 30 ml tubes each contained 10 ml RTD tea, pH 3.4. […] Tubes were inoculated with 10^4 cells of the yeast Saccharomyces cerevisiae X2180-1B. Tubes were then incubated for 14 days at 25° C. to allow surviving yeasts to grow out. At 14 days growth was measured by optical density at 600 nm in x11 diluted samples, and blank values subtracted.
as §1, with “containing” for “contained”, “tea” for “tea,”, “3.4, all contained 100 ppm citral dimethyl acetal.” for “3.4.”, “were” for “were then”
as §1, with “containing” for “contained”, “tea” for “tea,”, “3.4, all contained 100 ppm cumic alcohol.” for “3.4.”, “were” for “were then”
as §1, with “containing” for “contained”, “tea” for “tea,”, “3.4, all contained 100 ppm citral.” for “3.4.”, “were” for “were then”
as §1, with “containing” for “contained”, “tea” for “tea,”, “3.4, all contained 50 ppm 3,7-dimethyl octanol.” for “3.4.”, “were” for “were then”
as §1, with “containing” for “contained”, “tea” for “tea,”, “3.4, all contained 100 ppm myrtenol.” for “3.4.”, “were” for “were then”
as §1, with “containing” for “contained”, “tea” for “tea,”, “3.4, all contained 100 ppm piperonyl acetate.” for “3.4.”, “were” for “were then”
as §1, with “containing” for “contained”, “tea” for “tea,”, “3.4, all contained 15 ppm trans, trans-2,4-decadienal.” for “3.4.”, “were” for “were then”
as §1, with “containing” for “contained”, “tea” for “tea,”, “3.4, all contained 100 ppm δ-decanolactone.” for “3.4.”, “were” for “were then”
as §1, with “containing” for “contained”, “tea” for “tea,”, “3.4, all contained 25 ppm citral dimethyl acetal and 35 ppm cumic alcohol.” for “3.4.”, “were” for “were then”
The matrix of 30 ml tubes each contained 10 ml RTD tea, pH 3.4. […]

[2] = test system: yeast Saccharomyces cerevisiae X2180-1B; test: Growth of yeast in matrix of tubes of synthetic soft drink (0% tea) with preservatives and essential oil component, OD 600 nm at 14 days; conditions: synthetic soft drink pH 3.4, 100 ppm essential oil component, cinnamic acid 1-175 ppm, 14 days 25° C.
Protocol: (§2) Synthetic soft drink contained glucose, 8%w/v, citric acid 3 g/l, potassium orthophosphate 1 g/l, magnesium chloride 0.1 g/l and yeast extract 0.1 g/l. The matrix of 30 ml tubes each contained 10 ml synthetic soft drink, pH 3.4. Sorbic acid was used in the range 1-250 ppm and cinnamic acid in the range 1-175 ppm. Tubes were inoculated with 10^4 cells of the yeast Saccharomyces cerevisiae X2180-1B. Tubes were then incubated for 14 days at 25° C. to allow surviving yeasts to grow out. At 14 days growth was measured by optical density at 600 nm in x11 diluted samples, and blank values subtracted.
as §2, with “each containing” for “each contained”, “soft drink” for “soft drink,”, “pH 3.4, all contained 100 ppm citral dimethyl acetal.” for “pH 3.4.”, “were” for “were then”
Synthetic soft drink contained glucose, 8%w/v, citric acid 3 g/l, potassium orthophosphate 1 g/l, magnesium chloride 0.1 g/l and yeast extract 0.1 g/l. The matrix of 30 ml tubes each contained 10 ml synthetic soft drink, pH 3.4. […] At 14 days growth was measured by optical density at 600 nm in x11 diluted samples, and blank values subtracted.
Synthetic soft drink contained glucose, 8%w/v, citric acid 3 g/l, potassium orthophosphate 1 g/l, magnesium chloride 0.1 g/l and yeast extract 0.1 g/l. […] At 14 days growth was measured by optical density at 600 nm in x11 diluted samples, and blank values subtracted.
Synthetic soft drink contained glucose, 8%w/v, citric acid 3 g/l, potassium orthophosphate 1 g/l, magnesium chloride 0.1 g/l and yeast extract 0.1 g/l. […] At 14 days growth was measured by optical density at 600 nm in x11 diluted samples, and blank values subtracted. […]

[3] = test system: spoilage mould Aspergillus niger POL10; test: Growth of spoilage mould in RTD tea with preservatives and increasing citral dimethyl acetal, visual at 28 days; conditions: RTD tea pH 3.1, 0.14% tea; sorbic acid 200 ppm, cinnamic acid 60 ppm, EDTA 30 ppm; 10^4 conidiaspores; 28 days 25° C.; tested 1-400 ppm
Protocol: Growth of spoilage mould Aspergillus niger POL10 in 30 ml tubes each contained 10 ml RTD tea, pH 3.1, 0.14% tea. All tubes containing sorbic acid 200 ppm, cinnamic acid 60 ppm, EDTA 30 ppm. An essential oil component, citral dimethyl acetal, was added in increasing concentration to tubes, in the range 1-400 ppm. Tubes were inoculated with 10^4 conidiaspores of the mould Aspergillus niger POL10. Tubes were then incubated for 28 days at 25° C. to allow moulds to grow out. At 28 days growth was measured visually. Mould growth was visible in all tubes, excepting those containing >80 ppm citral dimethyl acetal.

[4] = test system: fungi; conditions: Table I, preferred essential oils
[5] = 100 ppm essential oil component

CC(C)CCCC(C)CCO (stereo not shown) [3,7-Dimethyl-1-octanol]
tubes supporting yeast growth compared with control without essential oil (FIG. 13) ([1]; 50 ppm essential oil component): very substantially fewer tubes supporting yeast growth
tubes supporting yeast growth compared with control without essential oil (FIG. 1) ([1]; 50 ppm essential oil component): very substantially fewer tubes supporting yeast growth
tubes supporting yeast growth compared with control without essential oil (FIG. 19) ([1]; 50 ppm essential oil component): very substantially fewer tubes supporting yeast growth

COC(C=C(C)CCC=C(C)C)OC [Citral dimethyl acetal]
tubes supporting yeast growth compared with control without essential oil (FIG. 13) [1, 5]: very substantially fewer tubes supporting yeast growth
tubes supporting yeast growth compared with control without essential oil (FIG. 1) [1, 5]: very substantially fewer tubes supporting yeast growth
tubes supporting yeast growth compared with control without essential oil (FIG. 19) [1, 5]: very substantially fewer tubes supporting yeast growth
tubes supporting yeast growth compared with control without essential oil (FIG. 17) ([2]; benzoic acid 1-250 ppm): very substantially fewer tubes supporting yeast growth
tubes supporting yeast growth compared with control without essential oil (FIG. 11) ([2]; sorbic acid 1-250 ppm): very substantially fewer tubes supporting yeast growth
tubes supporting yeast growth compared with control without essential oil (FIG. 23) ([2]; sorbic acid+benzoic acid 1:1 1-250 ppm): very substantially fewer tubes supporting yeast growth
concentration at which no mould growth was visible [3]: > 80 ppm

CC(C)=CCCC(C)=CC=O [Citral]
tubes supporting yeast growth compared with control without essential oil (FIG. 1) [1, 5]: very substantially fewer tubes supporting yeast growth

CC(C)c1ccc(CO)cc1 [Cumic alcohol]
tubes supporting yeast growth compared with control without essential oil (FIG. 1) [1, 5]: very substantially fewer tubes supporting yeast growth

CC1(C)C2CC=C(CO)C1C2 (stereo not shown) [Myrtenol]
tubes supporting yeast growth compared with control without essential oil (FIG. 1) [1, 5]: very substantially fewer tubes supporting yeast growth

CCCCCCCC(=O)O [Octanoic acid (caprylic)]
MIC (ppm) [4]: 115 ppm

CC(=O)OCc1ccc2c(c1)OCO2 [Piperonyl acetate]
tubes supporting yeast growth compared with control without essential oil (FIG. 1) [1, 5]: very substantially fewer tubes supporting yeast growth

CCCCC/C=C/C=C/C=O [trans,trans-2,4-Decadienal]
tubes supporting yeast growth compared with control without essential oil (FIG. 1) ([1]; 15 ppm essential oil component): very substantially fewer tubes supporting yeast growth
